Source: patent US20240390484A1 (priority 2022, published 2024)

How the values were obtained:
BHK-21 cells = format: cell-based; details: ready-to-use S2P RNA, 4 μg, 48 hours post transfection; 48/40.5/10/1.5 mol %
Vero E6 cells = format: cell-based; details: ready-to-use S2P RNA, 4 μg, 48 hours post transfection; 48/40.5/10/1.5 mol %
[1] = Stability of blank-LNP at 2-8° C. (particle size, PDI); format: physicochemical; details: blank-LNP 48/40.5/10/1.5 mol %
Description: (§1) Lipid nanoparticles (LNPs) were formed or formulated by rapid mixing of an ethanol phase and an aqueous phase using a microfluidic device. The aqueous phase included a 50 mM citrate buffer (pH 5.5). The ethanol phase included an ionizable lipid (as described herein), cholesterol (Jiangsu Southeast Nanomaterials), 1,2-diastearoyl-sn-glycero-3-phosphocholine (DSPC) (Jiangsu Southeast Nanomaterials) and 1,2-dimyristoyl-rac-glycero-3-methoxypolyethylene glycol-2000 (DMG-PEG2000) (SINOPEG). A series of ionizable lipids were evaluated. These four lipid components were mixed at defined molar ratios in ethanol, for instance, at a molar ratio of 48:40.5:10:1.5 (ionizable lipid:cholesterol:DSPC:DMG-PEG2000). The generated LNP particles were purified in citrate buffer (containing sucrose) and characterized with respect to particle size, polydispersity index (PDI) and ionizable lipid concentration. The LNP solution was then diluted to the target concentration and stored at 2-8° C.
Each generated blank-LNP formulation was added to and mixed with lyophilized S2P RNA, altogether yielding a series of “ready-to-use” S2P RNA test items containing the different ionizable lipids. The pharmaceutical characteristics (Table 3) and in vitro transfection efficiency (Table 4) of these “ready-to-use” RNA test items were compared head-to-head. In parallel, the stability profiles of these […] blank-LNP formulations (i.e. without RNA complexation) were assessed at 2-8° C. (see Table 5).
The generated fourteen blank-LNP formulations were characterized in terms of particle size and PDI, both at the end of manufacturing (T=0) and 8-week storage at 2-8° C. […] (defined as size increase ≤20 nm in 8 weeks), namely DMG-PEG2000 between at least 1-4 mol %, DSPC between at least 5-20 mol %, ionizable lipid between at least 30-70 mol % and cholesterol between at least 18.5-58.5 mol %.

[2] = Particle size and polydispersity index (PDI) by Dynamic Light Scattering; format: physicochemical; details: for “Ready-to-use” S2P RNA formulation PDI / “Ready-to-use” S2P RNA formulation Size: 48/40.5/10/1.5 mol %, blank-LNP added to lyophilized S2P RNA (55 ug/vial), N/P 7; for Blank-LNP PDI / Blank-LNP Size: 48/40.5/10/1.5 mol % ionizable lipid/cholesterol/DSPC/DMG-PEG
Description: as §1
(§2) In the case of a filled LNP, for example, an LNP-encapsulated S-2P RNA liquid drug product, the preparation protocol is essentially the same, except that it was an aqueous solution of S-2P RNA in citrate buffer pH 5-6 that constitutes the aqueous phase for LNP formation. The LNP-encapsulated RNA formulation is also referred to as “RNA-LNP” in this disclosure. Regarding characterization, particle size and polydispersity index (PDI) of the RNA-LNP were determined by Dynamic Light Scattering (DLS); RNA encapsulation efficiency and concentration were determined by means of Ribogreen® assay and RNA purity was determined by agarose gel electrophoresis.
(§3) The “ready-to-use” RNA product was manufactured by transferring a predetermined amount of already formed LNP in solution to a sealed vial containing the lyophilized RNA composition, followed by mixing at room temperature. The amount of LNP added per vial (e.g., 30-100 μg RNA per vial) was determined based on the molar ionizable lipid:RNA (N/P) molar ratio of 7. In this disclosure, “ready-to-use” S-2P RNA formulations (also referred to as “LNP(S-2P RNA)”) containing 30-100 μg/mL S-2P RNA were prepared, and then characterized with respect to particle size, polydispersity index, as well as RNA concentration, complexation efficiency, and purity using the same methods as described above in Example 3.

[3] = RNA encapsulation/complexation efficiency by Ribogreen assay; format: physicochemical; details: 48/40.5/10/1.5 mol %; blank-LNP added to lyophilized S2P RNA (55 ug/vial), N/P 7
Description: as §2, §3

[4] = various LNP batches, different molar ratios of ionizable lipid:cholesterol:DSPC:DMG-PEG2000

CCCCCCCCCOC(=O)CCCCCCCOc1ccc(OCCCCCCCC(=O)OCCCCCCCCC)c(COC(=O)CCCN(C)C)c1 [Lipid #2]
RBD expression in BHK-21 cells (BHK-21 cells): 1.34 ng/mL
RBD expression in Vero E6 cells (Vero E6 cells): 0.97 ng/mL
Change in size (nm) vs. T0, T = 1 month [1]: unaltered size
PDI, T = 1 month [1]: 0.07
Size, T = 1 month [1]: 121 nm
Change in size (nm) vs. T0, T = 1 month ([1]; listed as #2): +1 nm
Change in size (nm) vs. T0, T = 2 weeks [1]: +2 nm
PDI, T = 2 weeks [1]: 0.09
Size, T = 2 weeks [1]: 122 nm
PDI, T = 0 [1]: 0.09
Size, T = 0 [1]: 120 nm
“Ready-to-use” S2P RNA formulation PDI [2]: 0.21
“Ready-to-use” S2P RNA formulation Size [2]: 211 nm
Blank-LNP PDI [2]: 0.09
Blank-LNP Size [2]: 120 nm

CCCCCCCCCOC(=O)CCCCCCCOc1ccc(OCCCCCCCC(=O)OC(CCCCCCCC)CCCCCCCC)c(COC(=O)CCCN(C)C)c1 [Lipid #5]
PDI, T = 1 month [1]: 0.14
Size, T = 1 month [1]: 93 nm
Change in size (nm) vs. T0, T = 2 weeks [1]: −1 nm
PDI, T = 2 weeks [1]: 0.13
Size, T = 2 weeks [1]: 90 nm
PDI, T = 0 [1]: 0.20
Size, T = 0 [1]: 91 nm
“Ready-to-use” S2P RNA formulation PDI [2]: 0.13
“Ready-to-use” S2P RNA formulation Size [2]: 137 nm
Blank-LNP PDI [2]: 0.2
Blank-LNP Size [2]: 91 nm
particle size [2, 4]: 80±15 nm
polydispersity index [2, 4]: 0.10±0.05
“Ready-to-use” S2P RNA formulation RNA complexation efficiency [3]: 44%
